Measurements reported in article PMC7422721 (ACS chemical biology, 2019).

What was measured:
[1] = target: T1, RNF4 (Homo sapiens, UniProt P78317); assay: competitive gel-based ABPP against IA-rhodamine labeling of pure RNF4; assay type: binding
T1 sequence (P78317 1-190): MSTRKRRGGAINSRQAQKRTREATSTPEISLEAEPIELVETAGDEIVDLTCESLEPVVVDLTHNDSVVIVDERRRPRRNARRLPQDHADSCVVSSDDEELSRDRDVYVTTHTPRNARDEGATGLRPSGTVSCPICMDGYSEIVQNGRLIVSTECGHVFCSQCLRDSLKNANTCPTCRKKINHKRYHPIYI

[2] = target: T1, RNF4; assay: LC-MS/MS of covalent adduct on purified RNF4; assay type: binding

Row | Compound | IC50 [1] [nM] | IC50 [2]
1 | Cc1sc2c(c1C)C(c1ccc(Cl)cc1)=N[C@@H](CC(=O)NCCCCOc1ccc(Oc3ccc(N(Cc4ccccc4)C(=O)CCl)cc3)cc1)c1nnc(C)n1-2 [CCW 28-3, CCW 28–3] | 540 | –
2 | TRH 1–23 [TRH 1-23] | – | double digit micromolar
